# Data published in PubChem BioAssay AID1963966 (Molecular Pharmacology Branch, DTP, NCI, 2024).
# System: 935938-334-R-J1-PDC spheroids with HUVEC/MSC, viability
# Test: Anticancer human tumor 935938-334-R-J1-PDC patient-derived small intestine adenocarcinoma cell line growth inhibition [PI3K]
# Conditions: for IC50: curve of first compound; for viability, T/C: stronger effect = lower value
# In short: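 We assembled tumor spheroids that included a stromal compartment of HUVEC and MSCs, then exposed them to targeted agents alone and together with PI3K pathway inhibitors. Concentration series descended by half-log from clinically achievable Cmax levels. Viability served as the endpoint.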
# [1] = second compound 0.00316 µM, first compound 0.0316 µM
# [2] = second compound 0.00316 µM, first compound 0.1 µM
# [3] = second compound 0.01 µM, first compound 0.0316 µM
# [4] = second compound 0.01 µM, first compound 0.1 µM
# [5] = second compound 0.0316 µM, first compound 0.0316 µM
# [6] = second compound 0.0316 µM, first compound 0.1 µM
# [7] = second compound 0.1 µM, first compound 0.0316 µM
# [8] = second compound 0.1 µM, first compound 0.1 µM
# [9] = second compound 0.316 µM, first compound 0.0316 µM
# [10] = second compound 0.316 µM, first compound 0.1 µM
# [11] = second compound 1 µM, first compound 0.0316 µM
# [12] = second compound 1 µM, first compound 0.1 µM
# 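Further: compound exposure lasted seven days before viability was read.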
# 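Wherever viability, T/C is given: percent of vehicle DMSO treated spheroid viability so 100% = untreated.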
smiles,measurement,setting,value
CC(=O)c1c(C)c2cnc(Nc3ccc(N4CCNCC4)cn3)nc2n(C2CCCC2)c1=O + COc1c(OCCCN2CCOCC2)ccc2c3n(c(=NC(=O)c4cnc(N)nc4)nc12)CCN3,IC50,second compound 0.00316 µM,> 100 nM
same,IC50,second compound 0.01 µM,> 100 nM
same,IC50,second compound 0.0316 µM,> 100 nM
same,IC50,second compound 0.1 µM,0.621 nM
same,IC50,second compound 0.316 µM,< 0.316 nM
same,IC50,second compound 1 µM,< 0.316 nM
same,"viability, T/C","second compound 0.00316 µM, first compound 0.000316 µM",94.8%
same,"viability, T/C","second compound 0.00316 µM, first compound 0.001 µM",98.7%
same,"viability, T/C","second compound 0.00316 µM, first compound 0.00316 µM",80.2%
same,"viability, T/C","second compound 0.00316 µM, first compound 0.01 µM",113%
same,"viability, T/C",[1],110%
same,"viability, T/C",[2],57.4%
same,"viability, T/C","second compound 0.01 µM, first compound 0.000316 µM",99.7%
same,"viability, T/C","second compound 0.01 µM, first compound 0.001 µM",90.8%
same,"viability, T/C","second compound 0.01 µM, first compound 0.00316 µM",80.4%
same,"viability, T/C","second compound 0.01 µM, first compound 0.01 µM",90.1%
same,"viability, T/C",[3],78.4%
same,"viability, T/C",[4],56.3%
same,"viability, T/C","second compound 0.0316 µM, first compound 0.000316 µM",81.8%
same,"viability, T/C","second compound 0.0316 µM, first compound 0.001 µM",74.7%
same,"viability, T/C","second compound 0.0316 µM, first compound 0.00316 µM",68.3%
same,"viability, T/C","second compound 0.0316 µM, first compound 0.01 µM",63.2%
same,"viability, T/C",[5],63.8%
same,"viability, T/C",[6],48.6%
same,"viability, T/C","second compound 0.1 µM, first compound 0.000316 µM",54.4%
same,"viability, T/C","second compound 0.1 µM, first compound 0.001 µM",48.6%
same,"viability, T/C","second compound 0.1 µM, first compound 0.00316 µM",37.9%
same,"viability, T/C","second compound 0.1 µM, first compound 0.01 µM",42%
same,"viability, T/C",[7],39.7%
same,"viability, T/C",[8],35.6%
same,"viability, T/C","second compound 0.316 µM, first compound 0.000316 µM",39.9%
same,"viability, T/C","second compound 0.316 µM, first compound 0.001 µM",32.6%
same,"viability, T/C","second compound 0.316 µM, first compound 0.00316 µM",29.2%
same,"viability, T/C","second compound 0.316 µM, first compound 0.01 µM",33.3%
same,"viability, T/C",[9],27.9%
same,"viability, T/C",[10],35.3%
same,"viability, T/C","second compound 1 µM, first compound 0.000316 µM",38.4%
same,"viability, T/C","second compound 1 µM, first compound 0.001 µM",35.2%
same,"viability, T/C","second compound 1 µM, first compound 0.00316 µM",35.3%
same,"viability, T/C","second compound 1 µM, first compound 0.01 µM",39.6%
same,"viability, T/C",[11],30.2%
same,"viability, T/C",[12],31%
CNC(=O)c1ccc(N2C(=S)N(c3ccc(C#N)c(C(F)(F)F)c3)C(=O)C2(C)C)cc1F + COc1c(OCCCN2CCOCC2)ccc2c3n(c(=NC(=O)c4cnc(N)nc4)nc12)CCN3,IC50,second compound 0.00316 µM,> 10000 nM
same,IC50,second compound 0.01 µM,> 10000 nM
same,IC50,second compound 0.0316 µM,> 10000 nM
same,IC50,second compound 0.1 µM,69.4 nM
same,IC50,second compound 0.316 µM,< 31.6 nM
same,IC50,second compound 1 µM,< 31.6 nM
same,"viability, T/C",[1],89.8%
same,"viability, T/C",[2],76.3%
same,"viability, T/C","second compound 0.00316 µM, first compound 0.316 µM",74.8%
same,"viability, T/C","second compound 0.00316 µM, first compound 1 µM",66.8%
same,"viability, T/C","second compound 0.00316 µM, first compound 3.16 µM",103%
same,"viability, T/C","second compound 0.00316 µM, first compound 10 µM",93.4%
same,"viability, T/C",[3],87.6%
same,"viability, T/C",[4],96.8%
same,"viability, T/C","second compound 0.01 µM, first compound 0.316 µM",102%
same,"viability, T/C","second compound 0.01 µM, first compound 1 µM",85.8%
same,"viability, T/C","second compound 0.01 µM, first compound 3.16 µM",104%
same,"viability, T/C","second compound 0.01 µM, first compound 10 µM",92.7%
same,"viability, T/C",[5],84.5%
same,"viability, T/C",[6],85.3%
same,"viability, T/C","second compound 0.0316 µM, first compound 0.316 µM",82.1%
same,"viability, T/C","second compound 0.0316 µM, first compound 1 µM",81%
same,"viability, T/C","second compound 0.0316 µM, first compound 3.16 µM",76.6%
same,"viability, T/C","second compound 0.0316 µM, first compound 10 µM",66.6%
same,"viability, T/C",[7],62.9%
same,"viability, T/C",[8],42.6%
same,"viability, T/C","second compound 0.1 µM, first compound 0.316 µM",49.1%
same,"viability, T/C","second compound 0.1 µM, first compound 1 µM",44.5%
same,"viability, T/C","second compound 0.1 µM, first compound 3.16 µM",42.9%
same,"viability, T/C","second compound 0.1 µM, first compound 10 µM",40.2%
same,"viability, T/C",[9],43.3%
same,"viability, T/C",[10],29.4%
same,"viability, T/C","second compound 0.316 µM, first compound 0.316 µM",31.3%
same,"viability, T/C","second compound 0.316 µM, first compound 1 µM",32.4%
same,"viability, T/C","second compound 0.316 µM, first compound 3.16 µM",36.7%
same,"viability, T/C","second compound 0.316 µM, first compound 10 µM",24.4%
same,"viability, T/C",[11],34.9%
same,"viability, T/C",[12],30.6%
same,"viability, T/C","second compound 1 µM, first compound 0.316 µM",38.3%
same,"viability, T/C","second compound 1 µM, first compound 1 µM",34.2%
same,"viability, T/C","second compound 1 µM, first compound 3.16 µM",29.3%
same,"viability, T/C","second compound 1 µM, first compound 10 µM",24.8%
Cn1cnc2c(F)c(Nc3ccc(Br)cc3Cl)c(C(=O)NOCCO)cc21 + COc1c(OCCCN2CCOCC2)ccc2c3n(c(=NC(=O)c4cnc(N)nc4)nc12)CCN3,IC50,second compound 0.00316 µM,60.9 nM
same,IC50,second compound 0.01 µM,56.6 nM
same,IC50,second compound 0.0316 µM,40.3 nM
same,IC50,second compound 0.1 µM,< 9.49 nM
same,IC50,second compound 0.316 µM,< 9.49 nM
same,IC50,second compound 1 µM,< 9.49 nM
same,"viability, T/C","second compound 0.00316 µM, first compound 0.00949 µM",70.9%
same,"viability, T/C","second compound 0.00316 µM, first compound 0.03 µM",55.8%
same,"viability, T/C","second compound 0.00316 µM, first compound 0.0949 µM",49.6%
same,"viability, T/C","second compound 0.00316 µM, first compound 0.3 µM",30.8%
same,"viability, T/C","second compound 0.00316 µM, first compound 0.949 µM",30.9%
same,"viability, T/C","second compound 0.00316 µM, first compound 3 µM",23.4%
same,"viability, T/C","second compound 0.01 µM, first compound 0.00949 µM",76.8%
same,"viability, T/C","second compound 0.01 µM, first compound 0.03 µM",63.6%
same,"viability, T/C","second compound 0.01 µM, first compound 0.0949 µM",36.4%
same,"viability, T/C","second compound 0.01 µM, first compound 0.3 µM",32.6%
same,"viability, T/C","second compound 0.01 µM, first compound 0.949 µM",22.6%
same,"viability, T/C","second compound 0.01 µM, first compound 3 µM",18.4%
same,"viability, T/C","second compound 0.0316 µM, first compound 0.00949 µM",64.5%
same,"viability, T/C","second compound 0.0316 µM, first compound 0.03 µM",51.7%
same,"viability, T/C","second compound 0.0316 µM, first compound 0.0949 µM",42.4%
same,"viability, T/C","second compound 0.0316 µM, first compound 0.3 µM",27%
same,"viability, T/C","second compound 0.0316 µM, first compound 0.949 µM",22.2%
same,"viability, T/C","second compound 0.0316 µM, first compound 3 µM",20.3%
same,"viability, T/C","second compound 0.1 µM, first compound 0.00949 µM",31.4%
same,"viability, T/C","second compound 0.1 µM, first compound 0.03 µM",29.9%
same,"viability, T/C","second compound 0.1 µM, first compound 0.0949 µM",20.9%
same,"viability, T/C","second compound 0.1 µM, first compound 0.3 µM",16.2%
same,"viability, T/C","second compound 0.1 µM, first compound 0.949 µM",17.3%
same,"viability, T/C","second compound 0.1 µM, first compound 3 µM",14.1%
same,"viability, T/C","second compound 0.316 µM, first compound 0.00949 µM",26.8%
same,"viability, T/C","second compound 0.316 µM, first compound 0.03 µM",21.4%
same,"viability, T/C","second compound 0.316 µM, first compound 0.0949 µM",19.4%
same,"viability, T/C","second compound 0.316 µM, first compound 0.3 µM",17.7%
same,"viability, T/C","second compound 0.316 µM, first compound 0.949 µM",18.9%
same,"viability, T/C","second compound 0.316 µM, first compound 3 µM",15%
same,"viability, T/C","second compound 1 µM, first compound 0.00949 µM",29%
same,"viability, T/C","second compound 1 µM, first compound 0.03 µM",24.4%
same,"viability, T/C","second compound 1 µM, first compound 0.0949 µM",21.4%
same,"viability, T/C","second compound 1 µM, first compound 0.3 µM",21.3%
same,"viability, T/C","second compound 1 µM, first compound 0.949 µM",17.9%
same,"viability, T/C","second compound 1 µM, first compound 3 µM",14%
